Data on 3 compounds can be found in ChEMBL document CHEMBL1133694, “Hydroxamic acid derivatives as potent peptide deformylase inhibitors and antibacterial agents” (J Med Chem, 2000).

What is called IC50 is the concentration at which inhibition is half-maximal. Read a high IC50 as weaker potency in that assay.

Assay [1] addresses T1, Neprilysin (Rattus norvegicus, UniProt P07861).
T1 sequence (P07861 whole entry): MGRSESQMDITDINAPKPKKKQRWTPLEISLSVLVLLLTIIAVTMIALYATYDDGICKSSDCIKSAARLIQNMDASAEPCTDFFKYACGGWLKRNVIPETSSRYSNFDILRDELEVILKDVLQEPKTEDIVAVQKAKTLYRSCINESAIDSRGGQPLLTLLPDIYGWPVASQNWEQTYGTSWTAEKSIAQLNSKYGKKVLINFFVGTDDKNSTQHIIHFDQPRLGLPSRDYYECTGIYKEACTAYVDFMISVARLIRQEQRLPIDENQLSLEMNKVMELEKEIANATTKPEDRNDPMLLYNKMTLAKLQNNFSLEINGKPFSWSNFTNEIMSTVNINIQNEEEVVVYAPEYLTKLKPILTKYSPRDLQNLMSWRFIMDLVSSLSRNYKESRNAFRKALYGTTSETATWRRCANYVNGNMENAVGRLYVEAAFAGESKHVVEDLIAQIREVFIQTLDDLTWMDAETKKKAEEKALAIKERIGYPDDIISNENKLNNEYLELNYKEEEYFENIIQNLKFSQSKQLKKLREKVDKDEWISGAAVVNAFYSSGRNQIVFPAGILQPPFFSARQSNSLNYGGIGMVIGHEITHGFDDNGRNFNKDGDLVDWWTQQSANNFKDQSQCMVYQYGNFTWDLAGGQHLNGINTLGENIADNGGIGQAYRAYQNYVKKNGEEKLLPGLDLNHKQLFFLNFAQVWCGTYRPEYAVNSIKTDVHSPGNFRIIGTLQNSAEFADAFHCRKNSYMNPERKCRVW
The assay can be described thus: Inhibitory activity against neutral endopeptidase enzyme (NEP).

Another assay relates to Chlamydia pneumoniae. Nature of the assay: In vitro antibacterial activity against Chlamydia pneumoniae AR-39. Type of assay: functional.
Assay [2] has as its system Stenotrophomonas maltophilia. The assay can be described thus: In vitro antibacterial activity against Stenotrophomonas maltophilia 1AC739. Type of assay: functional.
The next assay concerns Pseudomonas aeruginosa. The assay can be described thus: In vitro antibacterial activity against Pseudomonas aeruginosa ATCC 27853. Type of assay: functional.
The target of the next assay is Collagenase 3 (Homo sapiens, UniProt P45452). The assay can be described thus: Inhibition of Matrix metalloprotease-13.
Assay [3] deals with Macrophage metalloelastase (Homo sapiens, UniProt P39900). The assay can be described thus: Inhibition of human Matrix metalloprotease-12.
The test system of another assay is Enterococcus faecium. The assay can be described thus: In vitro antibacterial activity against Enterococcus faecium vanA E25_1. Type of assay: functional.
For a further assay, the system named is Staphylococcus aureus. The assay can be described thus: In vitro antibacterial activity against Staphylococcus aureus ATCC 25923. Type of assay: functional.
Assay [4] relates to Streptococcus pneumoniae. Nature of the assay: In vitro antibacterial activity against Streptococcus pneumoniae ATCC 49619. Type of assay: functional.
Assay [5] concerns Escherichia coli. The assay can be described thus: In vitro antibacterial activity against isolated Escherichia coli DC2. Type of assay: functional.
A further assay deals with T2, Interstitial collagenase (Homo sapiens, UniProt P03956).
T2 sequence (P03956 whole entry): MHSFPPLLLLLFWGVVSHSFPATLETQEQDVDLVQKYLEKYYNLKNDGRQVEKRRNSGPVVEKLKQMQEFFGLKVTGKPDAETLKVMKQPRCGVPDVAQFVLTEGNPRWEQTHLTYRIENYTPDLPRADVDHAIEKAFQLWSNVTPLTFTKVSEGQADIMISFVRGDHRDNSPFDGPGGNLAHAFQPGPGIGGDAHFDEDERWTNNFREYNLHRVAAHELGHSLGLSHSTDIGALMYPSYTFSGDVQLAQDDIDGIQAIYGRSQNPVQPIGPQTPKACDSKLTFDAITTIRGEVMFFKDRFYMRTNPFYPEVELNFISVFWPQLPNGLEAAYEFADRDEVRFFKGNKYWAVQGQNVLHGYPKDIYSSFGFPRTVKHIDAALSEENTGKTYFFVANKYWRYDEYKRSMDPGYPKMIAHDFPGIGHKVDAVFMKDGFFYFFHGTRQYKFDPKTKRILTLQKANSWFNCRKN
The assay can be described thus: Inhibition of Matrix metalloprotease-1.

In the next assay the test system is Enterococcus faecalis. The assay can be described thus: In vitro antibacterial activity against Enterococcus faecalis ATCC 29212. Type of assay: functional.
The test system of assay [6] is Streptococcus pneumoniae. Nature of the assay: In vitro antibacterial activity against Streptococcus pneumoniae 1/1 (penicillin resistant). Type of assay: functional.
Another assay concerns Moraxella catarrhalis. The assay can be described thus: In vitro antibacterial activity against isolated Moraxella catarrhalis RA21. Type of assay: functional.
For a further assay, the system named is Haemophilus influenzae. Nature of the assay: In vitro antibacterial activity against Haemophilus influenzae 11. Type of assay: functional.
The target of assay [7] is T3, Endothelin-converting enzyme 1 (Homo sapiens, UniProt P42892).
T3 sequence (P42892 whole entry): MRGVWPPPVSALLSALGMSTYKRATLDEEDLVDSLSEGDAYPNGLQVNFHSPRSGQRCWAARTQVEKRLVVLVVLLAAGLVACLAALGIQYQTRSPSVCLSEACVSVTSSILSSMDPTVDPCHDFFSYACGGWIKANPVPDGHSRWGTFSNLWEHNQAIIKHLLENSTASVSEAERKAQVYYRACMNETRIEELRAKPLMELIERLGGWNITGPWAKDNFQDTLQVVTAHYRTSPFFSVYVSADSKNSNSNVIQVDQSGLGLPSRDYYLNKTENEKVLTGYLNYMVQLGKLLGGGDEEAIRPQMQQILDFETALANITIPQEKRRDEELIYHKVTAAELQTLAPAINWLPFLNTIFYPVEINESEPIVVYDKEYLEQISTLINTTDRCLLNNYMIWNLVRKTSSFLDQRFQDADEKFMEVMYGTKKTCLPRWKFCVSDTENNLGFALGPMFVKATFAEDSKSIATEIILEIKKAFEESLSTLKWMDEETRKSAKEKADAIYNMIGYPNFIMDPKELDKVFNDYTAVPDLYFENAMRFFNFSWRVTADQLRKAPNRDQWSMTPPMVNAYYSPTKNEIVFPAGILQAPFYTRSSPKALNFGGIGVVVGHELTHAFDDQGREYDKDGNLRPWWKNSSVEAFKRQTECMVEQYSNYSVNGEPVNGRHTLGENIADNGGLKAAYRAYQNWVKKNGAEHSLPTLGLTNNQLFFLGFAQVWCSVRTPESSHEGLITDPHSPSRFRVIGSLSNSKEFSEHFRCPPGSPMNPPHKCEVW
The assay can be described thus: Inhibitory activity against Endothelin-converting enzyme 1.

For assay [8], the system named is peptide deformylase (Streptococcus pneumoniae). Nature of the assay: Inhibitory activity against PDF isolated from Streptococcus pneumoniae.
The nature of assay [9]: Inhibitory activity against PDF isolated from Bacillus subtilis.
For assay [10], the system named is Mycoplasmoides pneumoniae. Nature of the assay: In vitro antibacterial activity against Mycoplasma pneumoniae ATCC 29342. Type of assay: functional.
The test system of another assay is Bacillus subtilis. The assay can be described thus: In vitro antibacterial activity against Bacillus subtilis ATCC 585969. Type of assay: functional.
Assay [11] has as its system Escherichia coli. Nature of the assay: In vitro antibacterial activity against Escherichia coli ATCC 25922. Type of assay: functional.
In assay [12] the target is Angiotensin-converting enzyme (Homo sapiens, UniProt P12821).
The target of the next assay is Matrilysin (Homo sapiens, UniProt P09237). Nature of the assay: Inhibition of matrilysin, Matrix metalloprotease-7.
Another assay concerns the target T4, Peptide deformylase (Escherichia coli, UniProt Q9JN24).
T4 sequence (Q9JN24 whole entry): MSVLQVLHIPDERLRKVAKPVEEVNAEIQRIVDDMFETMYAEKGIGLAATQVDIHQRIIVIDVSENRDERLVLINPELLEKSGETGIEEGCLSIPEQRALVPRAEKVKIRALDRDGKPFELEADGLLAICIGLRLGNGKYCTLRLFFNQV
The assay can be described thus: Inhibitory activity against isolated Escherichia coli peptidyl deformylase (PDF) enzyme containing iron.

The target of assay [13] is T1, Neprilysin. Nature of the assay: Inhibitory activity against endopeptidase enzyme (NEP).

Converted amounts (≈) assume the structure as drawn.

Sequence of Macrophage metalloelastase (P39900 whole entry): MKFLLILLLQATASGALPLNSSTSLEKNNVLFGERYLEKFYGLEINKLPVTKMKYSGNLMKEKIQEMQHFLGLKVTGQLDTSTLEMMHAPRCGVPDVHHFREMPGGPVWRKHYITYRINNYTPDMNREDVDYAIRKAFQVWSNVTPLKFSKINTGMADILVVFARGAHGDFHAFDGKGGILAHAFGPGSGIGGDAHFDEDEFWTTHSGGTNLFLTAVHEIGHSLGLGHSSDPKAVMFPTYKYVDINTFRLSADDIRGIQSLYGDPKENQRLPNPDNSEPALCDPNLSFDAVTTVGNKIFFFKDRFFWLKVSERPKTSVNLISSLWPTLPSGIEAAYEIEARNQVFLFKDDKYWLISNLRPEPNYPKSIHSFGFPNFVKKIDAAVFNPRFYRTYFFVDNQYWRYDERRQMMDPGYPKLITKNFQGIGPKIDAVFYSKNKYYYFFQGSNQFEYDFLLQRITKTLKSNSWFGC
Sequence of Angiotensin-converting enzyme (P12821 whole entry): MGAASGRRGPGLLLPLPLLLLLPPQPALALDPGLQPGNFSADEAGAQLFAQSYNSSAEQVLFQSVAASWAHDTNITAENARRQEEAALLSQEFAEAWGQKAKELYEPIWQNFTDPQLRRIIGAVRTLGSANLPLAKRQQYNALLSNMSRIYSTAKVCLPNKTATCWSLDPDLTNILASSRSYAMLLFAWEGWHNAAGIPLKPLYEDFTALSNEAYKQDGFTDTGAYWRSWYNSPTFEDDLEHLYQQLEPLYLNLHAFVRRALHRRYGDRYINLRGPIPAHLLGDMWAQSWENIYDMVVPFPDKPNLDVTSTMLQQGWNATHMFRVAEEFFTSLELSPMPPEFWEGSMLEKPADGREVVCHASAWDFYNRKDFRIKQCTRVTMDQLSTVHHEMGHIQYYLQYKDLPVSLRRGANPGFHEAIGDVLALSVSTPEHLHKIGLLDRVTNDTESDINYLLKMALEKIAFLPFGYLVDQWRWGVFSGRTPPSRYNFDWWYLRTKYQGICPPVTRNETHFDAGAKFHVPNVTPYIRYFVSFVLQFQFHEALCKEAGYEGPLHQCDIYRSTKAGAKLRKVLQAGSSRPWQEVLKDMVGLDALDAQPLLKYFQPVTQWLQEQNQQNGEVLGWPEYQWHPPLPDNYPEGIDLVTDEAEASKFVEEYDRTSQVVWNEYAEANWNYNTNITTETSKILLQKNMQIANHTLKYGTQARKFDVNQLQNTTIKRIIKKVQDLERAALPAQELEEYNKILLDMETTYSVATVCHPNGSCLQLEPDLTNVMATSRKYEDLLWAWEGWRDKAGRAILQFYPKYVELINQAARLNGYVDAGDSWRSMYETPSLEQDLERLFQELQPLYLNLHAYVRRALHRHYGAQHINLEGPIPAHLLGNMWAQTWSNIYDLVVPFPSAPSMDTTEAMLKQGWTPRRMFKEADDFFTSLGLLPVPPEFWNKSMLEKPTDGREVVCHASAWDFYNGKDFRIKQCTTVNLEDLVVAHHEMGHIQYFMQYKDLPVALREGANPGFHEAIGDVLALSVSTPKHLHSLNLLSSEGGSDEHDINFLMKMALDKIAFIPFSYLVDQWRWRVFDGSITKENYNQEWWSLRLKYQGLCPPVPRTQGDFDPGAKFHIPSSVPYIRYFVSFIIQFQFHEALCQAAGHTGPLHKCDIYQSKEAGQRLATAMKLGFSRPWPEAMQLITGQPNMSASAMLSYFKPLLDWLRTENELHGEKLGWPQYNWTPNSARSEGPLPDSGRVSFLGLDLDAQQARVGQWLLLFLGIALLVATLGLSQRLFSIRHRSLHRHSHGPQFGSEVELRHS
Sequence of Matrilysin (P09237 whole entry): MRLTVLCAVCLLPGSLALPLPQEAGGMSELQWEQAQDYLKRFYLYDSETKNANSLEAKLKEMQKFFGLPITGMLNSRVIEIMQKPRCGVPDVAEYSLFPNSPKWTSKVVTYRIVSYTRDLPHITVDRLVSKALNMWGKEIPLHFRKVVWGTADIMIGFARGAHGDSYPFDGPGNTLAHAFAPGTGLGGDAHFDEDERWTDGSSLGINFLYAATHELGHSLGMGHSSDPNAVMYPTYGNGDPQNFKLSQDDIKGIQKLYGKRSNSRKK

In the case of `CCCCC(CC(=O)NO)S(=O)(=O)c1ccccc1` (stereo unspecified), the IC50 on Neprilysin [1] is 18000 nM; against Collagenase 3 it was 22 nM; in assay [3], 12 nM; on Interstitial collagenase, 110 nM; in assay [7], > 50000 nM; in assay [8], 340 nM. In addition, the IC50 in assay [9] worked out at 96 nM; in assay [12], 81000 nM. The MIC was 0.5 µg/mL (≈ 1.75 µM) with Chlamydia pneumoniae; 4 µg/mL (≈ 14 µM) in [2]; > 128 µg/mL with Pseudomonas aeruginosa; > 128 µg/mL against Enterococcus faecium; 256 µg/mL (≈ 897 µM) against Staphylococcus aureus; 128 µg/mL (≈ 449 µM) against Streptococcus pneumoniae [4]. The MIC in the assay with Escherichia coli [5] was 8 µg/mL (≈ 28 µM); with Enterococcus faecalis, > 128 µg/mL; against Streptococcus pneumoniae [6], 128 µg/mL (≈ 449 µM); with Moraxella catarrhalis, < 0.25 µg/mL; against Haemophilus influenzae, 4 µg/mL (≈ 14 µM); in [10], 1 µg/mL (≈ 3.5 µM). The results for the MIC against Bacillus subtilis and against Escherichia coli [11] were 1 µg/mL (≈ 3.5 µM) and 128 µg/mL (≈ 449 µM), respectively.
Take `CCCCC(CC(=O)NO)S(=O)(=O)C1CCCCC1` (stereo unspecified): the IC50 stood at 1650 nM against Neprilysin [1]; 100 nM against Collagenase 3; 14 nM in [3]; 290 nM at Matrilysin; 54 nM at Interstitial collagenase; 78000 nM in assay [7]. In [12], the IC50 is > 100000 nM. The MIC is 8 µg/mL (≈ 27.5 µM) against Escherichia coli [5] and < 0.25 µg/mL with Moraxella catarrhalis.
For `CCCCC(CC(=O)NO)S(=O)(=O)c1ccc2ccccc2c1` (stereo unspecified), the IC50 was 9 nM against Collagenase 3; 13 nM in [3]; 1500 nM at Matrilysin; 70 nM against Interstitial collagenase; 450000 nM in assay [7]; 23 nM on Peptide deformylase. Also, the IC50 at Neprilysin [13] was found to be 500 nM; in assay [12], 12400 nM. Moreover, the figures for the MIC against Escherichia coli [5] and against Moraxella catarrhalis were 8 µg/mL (≈ 23.9 µM) and 0.5 µg/mL (≈ 1.49 µM), respectively.
